Measurements published in patent US20260207668A1, “MANIPULATION OF ADRENERGIC RECEPTORS TO INFLUENCE IMMUNE CELL DIFFERENTIATION AND FUNCTION” (Salk Institute for Biological Studies, priority 2022, published 2026).

Legend:
ADRB1 vs. ADRB2 = settings: relative to β1; cited from earlier work
PDAC tumors = test: Orthotopic PDAC (6419c5) in mice, beta-blocker alone or with ICB; type: in vivo; settings: for tumor growth: agent alone; for tumor growth (abdominal ultrasound volume and tumor mass): in combination with ICB (anti-PD-1 + anti-CTLA-4)
LCMV-clone 13 = type: in vivo, mice
YUMMER1.7 melanomas = test: YUMMER1.7 melanoma in mice, beta-blocker alone or with ICB; type: in vivo; settings: for cytokine production by CD8+ T cells: combination with ICB, tumor CD8+ T cells stimulated with PMA/ionomycin
ADRB1 = ADRB1 (Mus musculus, UniProt P34971); design: dose or concentration left out as unconfirmed; settings: Adrb1 OE P14+ cells vs empty vector; for CD8+ T cell cytokine production: gp33 stimulation; for CD8+ T cell proliferation: up to 6 days of culture
[1] = tested on: CD8+ T cells in PDAC tumors; test: scRNA Seq of tumor infiltrating T cells from PDAC tumors; type: in vivo, mice
Experimental: For scRNA Seq of PDAC tumors 4 tumors each per treatment condition were pooled and stained for sorting. The following cell populations were sorted into RPMI supplemented with 20% fetal bovine serum: Thy1.2^+ CD45.2^+ (T cells), Thy1.2^− CD45.2^+ (Non T cell leukocytes), YFP^+ CD45.2^− (tumor cells). Sorted cells were spun down at 420 rcf at 4° C. for 4 minutes, resuspended in PBS+2% fetal bovine serum and mixed at 8 k Thy1.2^+ CD45.2^+, 10 k Thy1.2^− CD45.2^+, 2 k YFP^+ CD45.2^− for a total of 20 k cells per sample.
Samples were then loaded onto Chromium Chip G (10× Genomics) and partitioned into Gel Bead-in-Emulsions using a chromium controller (10× Genomics). Single cell RNA libraries were generated following the manufacturer's instructions of the Chromium Next GEM Single Cell 3′ Reagent Kit v3.1 (10× Genomics) followed by sequencing on a NovaSeq6000 at the NGS Core of the Salk Institute. Cellranger count was used to align reads to the mm10 genome and YFP. The resulting counts matrix was then processed using the R package scran^54 and outlying cells identified with quickPerCellQC (stats, percent_subsets=“subsets_Mito_percent”) were discarded. Data was log normalized using quickCluster, computeSumFactors and logNormCounts. The top 10% most variable genes were calculated using modelGeneVarByPoisson and getTopHVGs and then used in the PCA calculation using denoisePCA. The top 50 principal components were used to calculate a UMAP dimensional reduction using the runUMAP function (metric=“cosine”, min_dist=0.3 and n_neighbors=30). Leiden clustering was performed with igraph's cluster_leiden (with resolution=0.05) after running buildSNNGraph (with k=25). Cell types were annotated using SingleR^55 and the ImmGenData labels as a reference using default parameters. For further analysis the dataset was filtered on T cells according to the SingleR labels and variable genes, PCA and UMAP were calculated with the same settings described above. Clustering of T cells was performed using cluster_leiden with the resolution set to 1.8. For visualization, data imputation was performed using MAGIC^56 using the exact solver. To assign biological relevance to the T cell clusters, a heatmap of the median log normalized expression (using aggregateAcrossCells) of selected markers was generated and visualized using ComplexHeatmap^57. Differential genes for the clusters were identified by performing pairwise comparison of one cluster against all other clusters using the findMarkers function (test.type=“binom”, lfc=0.1, direction=“up”). Gene signatures for T cell exhaustion and TRn cells were obtained from Wherry et al and Milner et al respectively^45,58 in addition to the MSigDB hallmark gene sets. Gene signature scores were calculated using AUCell^59 (aucMaxRank set to 5%). […]

[2] = gp33+ CD8+ T cells, d37 p.i., vs untreated

ADRB1, sequence (P34971 whole entry): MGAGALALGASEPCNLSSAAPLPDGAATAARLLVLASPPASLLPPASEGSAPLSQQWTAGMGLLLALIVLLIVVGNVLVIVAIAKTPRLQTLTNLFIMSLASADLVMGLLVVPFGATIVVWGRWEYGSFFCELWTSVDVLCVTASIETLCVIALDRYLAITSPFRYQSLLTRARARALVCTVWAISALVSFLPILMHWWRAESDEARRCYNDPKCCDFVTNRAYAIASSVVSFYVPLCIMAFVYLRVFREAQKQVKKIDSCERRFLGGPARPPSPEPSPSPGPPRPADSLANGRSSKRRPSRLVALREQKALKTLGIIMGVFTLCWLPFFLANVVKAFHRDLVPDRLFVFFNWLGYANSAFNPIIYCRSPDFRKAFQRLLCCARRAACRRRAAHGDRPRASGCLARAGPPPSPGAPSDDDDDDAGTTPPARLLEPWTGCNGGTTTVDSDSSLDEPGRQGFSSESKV

**Q.** With `CC(C)NCC(O)COc1ccc(CC(N)=O)cc1` (stereo not shown) [atenolol] as the compound, how does the “block of the β2-adrenergic receptor” value (ADRB1 vs. ADRB2) read?
**A.** The value was “to a lower degree”.

**Q.** And the tumor growth (PDAC tumors)?
**A.** Its tumor growth is “failed to suppress tumor growth”.

**Q.** What about the “tumor growth (abdominal ultrasound volume and tumor mass)” value (PDAC tumors) of the same compound?
**A.** The value was “failed to suppress tumor growth”.

**Q.** And the “frequencies of IFNγ-, TNF- and GZMB-producing virus-specific CD8+ T cells” value (LCMV-clone 13; after gp33 stimulation for 6 h, d37 p.i., vs untreated)?
**A.** Its value is “higher frequencies”.

**Q.** What about the “expansion of virus-specific CD8+ T cells that displayed features of TEXprog, at the expense of TEXeff and TEXterm” value (LCMV-clone 13; atenolol 0.5 mg/ml in drinking water throughout infection vs untreated, spleen, d37 p.i.) of the same compound?
**A.** Its value is “greater expansion”.

**Q.** What about the “amounts of CREM in virus-specific CD8+ T cells” value (LCMV-clone 13; [2]) of the same compound?
**A.** The value was “lowered”.

**Q.** And the “amounts of cAMP in virus-specific CD8+ T cells” value (LCMV-clone 13; [2])?
**A.** Its value is “lowered”.

**Q.** What about the viral titers (LCMV-clone 13; serum of LCMV-clone 13-infected mice, vs untreated) of the same compound?
**A.** The viral titers was “lower viral titers”.

**Q.** And the “tumor cell proliferation (tumor expression of Ki67 relative to IgG, IHC)” value (YUMMER1.7 melanomas; beta-blocker alone vs IgG, YUMMER tumors)?
**A.** Its value is “does not directly affect tumor cell proliferation”.

**Q.** And the “effects on differentiation of exhausted T cells” value (YUMMER1.7 melanomas; combination with ICB (anti-PD-1 + anti-CTLA-4))?
**A.** Its value is “did not extend beyond those of the checkpoint therapy alone”.

**Q.** What about the “tumor size (normalized tumor mass relative to IgG control)” value (YUMMER1.7 melanomas; combination with ICB (anti-PD-1 + anti-CTLA-4), compared to untreated or beta-blocker alone) of the same compound?
**A.** The value was “significantly smaller”.

**Q.** And the “cytokine production by CD8+ T cells” value (YUMMER1.7 melanomas)?
**A.** The value was “dramatically increased”.

**Q.** Which “CD8+ T cell cytokine production” value (ADRB1) does the source give for `CNCC(O)c1ccc(O)c(O)c1` (stereo not shown) [adrenaline] here?
**A.** The value was “impairs”.

**Q.** What about the “CD8+ T cell proliferation” value (ADRB1) of the same compound?
**A.** Its value is “impairs”.

**Q.** For `NC[C@H](O)c1ccc(O)c(O)c1` [noradrenaline], which “CD8+ T cell cytokine production” value (ADRB1) is on record?
**A.** The value was “impairs”.

**Q.** And the “CD8+ T cell proliferation” value (ADRB1)?
**A.** Its value is “impairs”.

**Q.** With `Cc1ccc(OCC(O)C(C)NC(C)C)c2c1CCC2` (stereo not shown) [ICI 11855135] as the compound, how does the tumor growth (PDAC tumors) read?
**A.** The tumor growth was “failed to suppress tumor growth”.

**Q.** And the “tumor growth (abdominal ultrasound volume and tumor mass)” value (PDAC tumors)?
**A.** Its value is “failed to suppress tumor growth”.

**Q.** With `Cn1cc(C(F)(F)F)nc1-c1ccc(OCC(O)CNCCOc2ccc(O)c(C(N)=O)c2)cc1` (stereo not shown) [CGP 20712A] as the compound, how does the “cytokine production by CD8+ T cells” value (YUMMER1.7 melanomas) read?
**A.** Its value is “significantly increased”.

**Q.** With `CC(C)NCC(O)COc1cccc2ccccc12` (stereo not shown) [propranolol] as the compound, how does the “tumor cell proliferation (tumor expression of Ki67 relative to IgG, IHC)” value (PDAC tumors; beta-blocker alone vs IgG, PDAC tumors) read?
**A.** Its value is “does not directly affect tumor cell proliferation”.

**Q.** What about the “CD8+ T cells in the tumors” value (PDAC tumors; combination with ICB) of the same compound?
**A.** The value was “increase”.

**Q.** And the “production of IFNγ and GZMB” value (PDAC tumors; combination with ICB, after PMA/ionomycin stimulation)?
**A.** The value was “increased production”.

**Q.** What about the “expression of the activation/exhaustion markers PD-1 and TIM3” value (PDAC tumors; combination with ICB, tumor CD8+ T cells) of the same compound?
**A.** The value was “higher expression”.

**Q.** What about the “tumor growth (abdominal ultrasound volume and tumor mass)” value (PDAC tumors) of the same compound?
**A.** The value was “significantly reduced”.

**Q.** And the “T cell clusters 1 and 5 (TRM-like and exhausted CD8+ T cells)” value ([1]; combination treatment with ICB)?
**A.** Its value is “enriched”.

**Q.** And the “cytokine and chemokine production (Gzma, Tgfb1, Gzmb, Xcl1, Ccl3, Ccl4, Ifng, Prf1) of CD8+ T cells” value ([1]; combination treatment with ICB)?
**A.** Its value is “enhanced”.

**Q.** And the “signatures for T cell response, exhaustion and TRM” value ([1]; combination treatment with ICB)?
**A.** Its value is “enriched”.

**Q.** And the “upregulated genes in CD8+ T cells compared to the isotype control” value ([1]; propranolol and ICB therapy)?
**A.** Its value is 272 genes.
